Assay results: patent US20030119894A1, “Methods for treatment of cancer or neoplastic disease and for inhibiting growth of cancer cells and neoplastic cells” (Gemin X Biotechnologies Inc., priority 2001, published 2003)

Tests used:
B23 cells [1] = assay: cells; assay type: cell-based, Human
Method: (§1) Human anti-apoptotic Bcl-2 over-expressing epithelial cells (B23 cells) (Nguyen et al. (1994) J. Biol. Chem. 269 (24): 16521-24) were plated in 24-well plates at a density of about 80,000 cells per well and infected with 12S-adenovirus, which expresses the E1A oncogene (Nguyen et al. (1998) J. Biol. Chem. 273 (50): 33099-102). Normal human breast epithelial cells, MCF-7 breast cancer cells and MBA-MB231 breast cancer cells were plated in 24-well plates at a density of between 70,000-80,000 cells per well. After incubation at 37° C. for the indicated times in a 5% CO2 incubator, cells were harvested and cell death was monitored using a trypan blue assay as described in Ausubel et al. (1988) Current Protocols in Molecular Biology, Section 11.5.1 (Greene Publishing Associates and Intersciences, New York)).
Normally, intracellular expression of an oncogene in cells results in apoptotic cell death. However, if anti-apoptotic Bcl-2 is over-expressed in these cells, they are protected from apoptosis. Therefore, an anti-cancer compound's activity can be monitored by measuring cell death in B23 cells in the presence of the E1A oncogene.

Bcl-2 = Bcl-2 (Homo sapiens, UniProt P10415); assay: Anti-apoptotic:Pro-apoptotic binding assay, Bcl-2
E1A cells = assay: E1A-Bcl2 killing assay; assay type: cell-based
Method: as §1
IC50 values determined for these illustrative compounds in an E1A killing assay, using the materials and methods described above. These compounds have been described in Gerber et al. (1975), Critical Reviews in Microbiology, pp. 469-85.

[2] = Trypan blue cell death assay in normal human breast epithelial cells; assay type: cell-based; conditions: human
Method: as §1

[3] = test system: Normal human breast epithelial cells; assay: as above; assay type: cell-based; conditions: 1 μM
Method: as §1

[4] = test system: MCF-7 breast cancer cells; assay: Trypan blue cell death assay in MCF-7 breast cancer cells; assay type: cell-based; conditions: Homo sapiens, MCF7, 72 h, read-out: Cytotoxicity (% Dead Cells)
Method: as §1

[5] = test system: MBA-MB231 breast cancer cells; assay: cells; assay type: cell-based; conditions: 72 h, read-out: Cytotoxicity (% Dead Cells)
Method: as §1

[6] = test system: Human oral epithelial carcinoma cells (KB cells); assay: Apoptosis reinstatement in Bcl-2 over-expressing KB cells (trypan blue); assay type: cell-based
Method: Human oral epithelial carcinoma cells (KB cells) with and without stably expressed anti-apoptotic Bcl-2 were infected with 12S-adenovirus expressing the E1A oncogene, as described above in Example 6.1. Cell death was monitored 70 hours after infection using the trypan blue assay described above.

Baby rat kidney cells = assay: Transformation of baby rat kidney cells transfected with E1A oncogene and Bcl-2 (colony count); assay type: cell-based
Method: Baby rat kidney cells were transfected with RcRSV (Hartl et al. (1992) Cell Growth Differ. 3 (12): 909-18) expressing both E1A oncogene and anti-apoptotic Bcl-2 as described in (Lin et al. (1995) Mol. Cell. Biol. 15 (8): 4536-44). Transfected cells were then cultured (Lin et al. (1995) Mol. Cell. Biol. 15 (8): 4536-44) in the presence of varying concentrations of Butyl-meta-cycloheptylprodiginine for three weeks and the number of transformed cell colonies was counted.

Bcl-w = molecular target: T1, Bcl-w (Homo sapiens, UniProt Q92843); assay: Anti-apoptotic:Pro-apoptotic binding assay, Bcl-w
T1 sequence (Q92843 1-193): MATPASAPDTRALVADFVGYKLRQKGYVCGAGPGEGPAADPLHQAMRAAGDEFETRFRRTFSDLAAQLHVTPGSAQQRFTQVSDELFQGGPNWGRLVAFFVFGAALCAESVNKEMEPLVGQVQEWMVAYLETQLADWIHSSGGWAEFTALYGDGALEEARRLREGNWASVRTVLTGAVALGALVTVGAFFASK

[7] = test system: normal baby rat kidney cells; assay: Susceptibility of normal baby rat kidney cells; assay type: cell-based; conditions: similar conditions; data not shown
Description: In the absence of anti-apoptotic Bcl-2, all baby rat kidney cells died within a few days (data not shown).

B23 cells [8] = assay type: cell-based, Human; conditions: B23 cells without E1A; data not shown
[9] = Homo sapiens, 72 h, read-out: Cytotoxicity (% Dead Cells)

Chain of Bcl-2 (P10415 whole entry): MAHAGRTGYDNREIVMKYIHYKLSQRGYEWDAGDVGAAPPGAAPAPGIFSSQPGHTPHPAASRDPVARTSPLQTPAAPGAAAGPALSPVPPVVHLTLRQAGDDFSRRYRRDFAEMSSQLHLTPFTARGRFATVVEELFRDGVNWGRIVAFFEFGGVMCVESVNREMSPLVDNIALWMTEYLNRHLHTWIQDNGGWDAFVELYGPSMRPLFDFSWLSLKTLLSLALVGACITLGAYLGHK

With Undecylprodiginine the “Cytotoxicity (% Dead Cells)” value (B23 cells [1]; B23 cells, 1.0 μM, 72 h) was 18%, the “Cytotoxicity (% Dead Cells)” value (B23 cells [1]; B23 cells, 5.0 μM, 72 h) was 25% and the “% inhibition at μM concentration, Anti-apoptotic:Pro-apoptotic binding assay Bcl-2” value (Bcl-2; at 500 μM) was 40%; 500 μM. For the same compound, the “% inhibition at μM concentration, E1A-Bcl2 killing assay” value (E1A cells; at 5 μM) was 25%; 5 μM.

Work on `CCC1CCCCCCCCc2ccc([nH]2)/C=C2\N=C(C=C2OC)c2ccc1[nH]2` (stereo not shown) [Ethylcyclononylprodiginine, ethylcyclononyl-prodiginine] yielded a cytotoxicity at 1 µM (B23 cells [1]; [9]) of 15%, a cytotoxicity at 5 µM (B23 cells [1]; [9]) of 20% and an inhibition at 510 µM (Bcl-2; at 510 μM, read-out: % inhibition at μM concentration, Anti-apoptotic:Pro-apoptotic binding assay Bcl-2) of 45%. For the same compound, the inhibition at 5 µM (E1A cells; read-out: % inhibition at μM concentration, E1A-Bcl2 killing assay) was 20%.

In the case of `CCCCC1CCCCCCc2cc1c(/C=C1\N=C(c3ccc[nH]3)C=C1OC)[nH]2` (stereo not shown) [Butyl-meta-cycloheptylprodiginine, butyl-meta-cycloheptylprodiginine], the “Concentration able to inhibit Bcl-2 in B23 cells and re-establish the killing effect of the E1A oncogene” value (B23 cells [1]; B23 cells with E1A, concentrations as low as) is reported as 0.25 µM, the cytotoxicity at 1 µM (B23 cells [1]; [9]) is reported as 85% and the cytotoxicity at 2 µM (B23 cells [1]; [9]) is reported as 95%. The cytotoxicity at 0.25 µM (B23 cells [1]; Homo sapiens, B23 cells, 0.25 μM, 72 h, read-out: Cytotoxicity (% Dead Cells)) was 75%, the cytotoxicity at 72 h, 0.25 µM [2] was 5% and the cytotoxicity at 72 h, 1 µM [2] was 5%. For the same compound, the cytotoxicity at 72 h, 2 µM [2] was 15%, the “Effect on normal human breast epithelial cells” value [3] was “not affected” and the cytotoxicity at 0.25 µM [4] was 70%. The cytotoxicity at 1 µM [4] was 100%, the cytotoxicity at 2 µM [4] was 100% and the cytotoxicity at 0.25 µM [5] was 64%. For the same compound, the cytotoxicity at 1 µM [5] was 100%, the cytotoxicity at 2 µM [5] was 100% and the “Apoptosis in uninfected KB cells” value ([6]; uninfected cells, same concentrations) was “no effect on apoptosis”. For the same compound, the “Apoptosis in E1A-infected Bcl-2 over-expressing KB cells” value ([6]; various concentrations, 70 hours after infection) was “reinstate apoptosis”, the “Apoptosis of transformed colonies” value (Baby rat kidney cells; baby rat kidney cells transformed with Bcl-2 and E1A) was “promoted apoptosis of the transformed colonies” and the “Number of transformed cell colonies (ability of Bcl-2 to transform cells in the presence of E1A)” value (Baby rat kidney cells; increasing concentrations, three weeks) was “significantly lowered the ability of anti-apoptotic Bcl-2 to transform cells”. It also gave an IC50 (Bcl-2) of 125 µM, an IC50 (Bcl-w) of 100 µM and an IC50 (E1A cells; read-out: IC50 (μM) E1A-Bcl2 killing assay) of 0.05 µM. The “Susceptibility of normal baby rat kidney cells” value [7] was “not susceptible” and the “Effect on B23 cell death in the absence of E1A” value (B23 cells [8]) was “no significant effect”.
